From patent publication US20260344668A1, “PHENYLPYRAZOLE COMPOUND, AND PLANT DISEASE CONTROL METHOD” (priority 2022, published 2026)

Experiments:
[1] = tested on: soybean rust fungus (Phakopsora pachyrhizi) having an amino acid substitution of F129L in a mitochondrial cytochrome b protein; experiment: Test Example 7 Control Test Against Soybean Rust (leaf disk); type: in vivo; conditions: 200 ppm, 10 μL per soybean leaf disk (cultivar: Kurosengoku), inoculated after 1 day
Protocol: (§1) The term of “non-treated well” in Test Example 4, Test Example 5, and Test Example 6 represents a well wherein a test was carried out under the same conditions as those described in each Test Example except for dispensing DMSO instead of a diluted solution with DMSO comprising the Present compound. Also, the term of “non-treated” in Test Examples 15 to 17 represents a test which was carried out under the same conditions as those described in each Test Example except for dispensing DMSO instead of a diluted solution with DMSO comprising the Present compound. Also, the term of “non-treated leaf disk” in Test Example 7 represents a leaf disk wherein a test was carried out under the same conditions as those described in the Test Example except for dispensing DMSO instead of a diluted solution with DMSO comprising the Present compound. Also, the term of “non-treated” in Test Example 10 and Test Example 11 means that a diluted solution with water of a formulation comprising the Present compound was not sprayed.
A true leaf of a soybean (cultivar: Kurosengoku) was cut into a diameter of 1 cm to prepare each leaf disk. To each well of a 24 well microplate was dispensed 1 mL of an agar medium (agar concentration 1.2%), and then one of said leaf disk was placed on the agar medium in each well. To a mixture of Sorpol (registered trademark) 1200KX (0.5 μL), DMSO (4.5 μL), and xylene (5 μL) was added a DMSO solution (20 μL) comprising a test compound (10000 ppm), and the resulting mixture was mixed. The resulting mixture was diluted with ion exchange water to prepare a mixture comprising a prescribed concentration of the test compound.
The resulting mixture was sprayed into each leaf disk at a ratio of 10 μL per leaf disk. After 1 day, an aqueous suspension of spores of soybean rust fungus (Phakopsora pachyrhizi) having an amino acid substitution of F129L in a mitochondrial cytochrome b protein (1.0×10^5/mL) was inoculated by spraying on each leaf disk. After the inoculation, the microplate was placed into an artificial climate chamber (Lighting: 6 hours, Lights-out: 18 hours, Temperature: 23° C., Humidity: 60%). After 1 day, the leaf disks were air-dried until water droplets on the surfaces of the leaf disks disappeared, and the microplate was placed into the artificial climate chamber again for 12 days. Then, lesion area of soybean rust was investigated. As a result, when the prescribed concentration was 200 ppm, each lesion area of leaf disk treated with any one of the Present compound 9, 10, 11, 13, 14, 15, 16, 17, 18, 20, 32, 33, 34, 35, 36, 37, 38, 39, 40, 42, 43, 44, 47, 48, 49, 50, 51, 52, 53, 55, 56, 57, 58, 62, 63, 64, 65, 66, 67, 68, 69, 70, 71, 73, 74, 75, 76, 77, 78, 79, 80, 81, 82, 83, 84, 85, 86, 87, 88, 89, 90, 91, 92, 93, 94, 95, 96, 97, 98, 99, 100, 101, or 102 as the test compound was 30% or less relative to the lesion area of non-treated leaf disk.

[2] = tested on: Cochliobolus miyabeanus; experiment: Test Example 6 Control Test Against Rice Brown Spot Fungus (96 well titer plate growth); type: cell-based; conditions: 1 μL of 150 ppm DMSO solution + 150 μL YB liquid medium, 23° C., 3 days, absorbance at 550 nm
Protocol: as §1
Each of the Present compound 17, 33, 36, 37, 39, 40, 41, 42, 43, 44, 48, 49, 50, 51, 52, 53, 62, 68, 69, 70, 71, 76, 77, 79, 80, 81, 82, 83, 84, or 97 was diluted with DMSO to obtain a diluted solution containing 150 ppm of each compound, and 1 μL of the diluted solution was dispensed into a titer plate (96 well), and thereto was then dispensed 150 μL of a YB liquid medium to which spores of Cochliobolus miyabeanus were inoculated in advance. This plate was cultured at 23° C. for 3 days, thereby allowing Cochliobolus miyabeanus to undergo proliferation, and the absorbance at 550 nm of each well of the titer plate was then measured to determine a degree of growth of Cochliobolus miyabeanus. As a result, the degree of growth in the well treated with each of the above Present compounds was 50% or less relative to the degree of growth in the non-treated well.

[3] = tested on: Phakopsora pachyrhizi; experiment: Test Example 15 Control Test Against Soybean Rust Fungus (spore germination, 96 well titer plate); type: cell-based; conditions: treatment concentration 1 ppm, 23° C., several hours
Protocol: as §1
The Present compound was diluted with DMSO to obtain a diluted solution containing 150 ppm of the compound, and 1 μL of the diluted solution was dispensed into a titer plate (96 well), and thereto was then dispensed 149 μL of an aqueous suspension (1.0×10^4/mL) of spores of Phakopsora pachyrhizi to which spores of Phakopsora pachyrhizi were suspended in advance. This plate was cultured at 23° C. for several hours, and then germinated spores of Phakopsora pachyrhizi were counted. As a result, when the treatment concentration was 1 ppm, the number of germinated spores in each well comprising any one of the Present compound 1, 11, 17, 18, 20, 23, 30, 33, 34, 35, 36, 37, 38, 39, 40, 41, 42, 43, 44, 46, 47, 48, 49, 50, 51, 52, 53, 54, 55, 56, 57, 58, 62, 63, 64, 65, 66, 67, 68, 69, 70, 71, 72, 73, 74, 75, 76, 77, 78, 79, 80, 81, 82, 83, 84, 85, 86, 87, 88, 89, 90, 91, 92, 93, 94, 95, 96, 97, 98, 99, 100, 101, or 102 as the test compound was 50% or less relative to the number of germinated spores in the non-treated well.

[4] = tested on: Phakopsora pachyrhizi; experiment: Test Example 11 Control Test Against Soybean Rust (pot test, spraying before inoculation); type: in vivo; conditions: 200 ppm foliage spray, soybeans (Kurosengoku), inoculated after 2 to 5 days
Protocol: as §1
A plastic pot was filled with soil, soybeans (cultivar: Kurosengoku) were seeded thereto, and cultured in a greenhouse for 10 to 14 days. The Present compound 9, 10, 11, 13, 14, 15, 17, 18, 20, 21, 22, 23, 26, 27, 33, 34, 35, 36, 37, 38, 39, 40, 41, 42, 43, 44, 46, 47, 53, 54, 55, 56, 57, 58, 66, 67, 68, 69, 70, 71, 73, 74, 75, 76, 77, 78, 79, 80, 81, 82, 83, 84, 85, 86, 87, 88, 89, 90, 91, 92, 93, 94, 95, 96, 97, 98, 99, 100, 101, or 102 formulated according to the method described in the Formulation Example 1 was mixed with water in such a way that the concentration thereof was 200 ppm, and the resulting mixture was sprayed to foliage of the above soybeans so as to adequately adhere onto the surfaces of leaves of the above soybeans. After spraying the mixture, the soybeans were air-dried. After 2 to 5 days, an aqueous suspension of spores of Phakopsora pachyrhizi was inoculated by spraying to the soybeans. After the inoculation, the soybeans were placed in a greenhouse at 23° C. in daytime and at 20° C. in nighttime under a humid condition for 1 to 2 day(s), then cultured in a greenhouse for 12 days, and then a lesion area was investigated. As a result, the lesion area in the soybeans treated with each of the above Present compound was 30% or less relative to the lesion area in the non-treated soybeans.

Structure (SMILES) | lesion area relative to the lesion area of non-treated leaf disk [1] [%] | degree of growth relative to the degree of growth in the non-treated well [2] [%] | number of germinated spores relative to the non-treated well [3] [%] | lesion area relative to the lesion area in the non-treated soybeans [4] [%]
O=S(=O)(c1cccc(F)c1)n1ccc(-c2cc(F)c(Br)c(F)c2)n1 [compound 17] | ≤ 30 | ≤ 50 | ≤ 50 | ≤ 30
O=S(=O)(c1cccs1)n1ccc(-c2cc(F)c(Br)c(F)c2)n1 [compound 33] | ≤ 30 | ≤ 50 | ≤ 50 | ≤ 30
O=S(=O)(c1ccoc1)n1ccc(-c2cc(F)c(Br)c(F)c2)n1 [compound 36] | ≤ 30 | ≤ 50 | ≤ 50 | ≤ 30
O=S(=O)(c1ccco1)n1ccc(-c2cc(F)c(Br)c(F)c2)n1 [compound 37] | ≤ 30 | ≤ 50 | ≤ 50 | ≤ 30
O=S(=O)(c1cccs1)n1ccc(-c2ccc(C(F)(F)F)c(F)c2)n1 [compound 39] | ≤ 30 | ≤ 50 | ≤ 50 | ≤ 30
O=S(=O)(c1cccs1)n1ccc(-c2ccc(Br)c(F)c2)n1 [compound 40] | ≤ 30 | ≤ 50 | ≤ 50 | ≤ 30
CSc1ccc(-c2ccn(S(=O)(=O)c3cccs3)n2)cc1 [compound 41] |  | ≤ 50 | ≤ 50 | ≤ 30
O=S(=O)(c1cccs1)n1ccc(-c2ccc(C3CC3)cc2)n1 [compound 42] | ≤ 30 | ≤ 50 | ≤ 50 | ≤ 30
Cn1nccc1S(=O)(=O)n1ccc(-c2cc(F)c(Br)c(F)c2)n1 [compound 48] | ≤ 30 | ≤ 50 | ≤ 50 | 
O=S(=O)(c1ccco1)n1ccc(-c2ccc(Br)cc2)n1 [compound 49] | ≤ 30 | ≤ 50 | ≤ 50 | 
O=S(=O)(c1ccco1)n1ccc(-c2ccc(Br)c(F)c2)n1 [compound 50] | ≤ 30 | ≤ 50 | ≤ 50 | 
O=S(=O)(c1ccoc1)n1ccc(-c2ccc(Br)cc2)n1 [compound 51] | ≤ 30 | ≤ 50 | ≤ 50 | 
O=S(=O)(c1ccoc1)n1ccc(-c2ccc(Br)c(F)c2)n1 [compound 52] | ≤ 30 | ≤ 50 | ≤ 50 | 
O=S(=O)(c1cccs1)n1ccc(-c2ccc3c(c2)CCC3)n1 [compound 62] | ≤ 30 | ≤ 50 | ≤ 50 | 
O=S(=O)(c1cncc(F)c1)n1ccc(-c2cc(F)c(Br)c(F)c2)n1 [compound 100] | ≤ 30 |  | ≤ 50 | ≤ 30
O=S(=O)(c1cccnc1)n1ccc(-c2ccc(F)c(F)c2)n1 [compound 101] | ≤ 30 |  | ≤ 50 | ≤ 30
